Columns and labels:
[1] = Log P by RP-HPLC (HPLC-PDA), extrapolation of Log k to 0% MeOH; format: physicochemical; details: for Log k / Retention factor (k): RP-C18
Description: For each compound, the retention time was reported at different percentages of mobile phases (Table 1). See Materials and Methods and Supplementary Materials for the detailed procedures. (1) k= tR− tM/tM where tR is the retention time of the sample and tM is the retention time of blank (methanol).
Stock solutions of each compound were prepared as follow: 1 mg of the synthesized compound and RSV (control) was weighted and dissolved in 1 mL of dimethyl sulfoxide (DMSO). The working solutions were prepared in methanol at 100 µg/mL. 20 µL of working solutions was injected in HPLC system without pre-treatment.
The HPLC analyses for all new compounds were carried out in isocratic conditions with Milli-Q Water (18.2 MΩ-cm at 25 °C) as solvent A and MeOH as solvent B in different percentages reported in […]. RP-C18 stationary phase (LiChrosorb C18, 150 × 4.6 mm, 5 µm) column was used. All compounds were detected at their maximum wavelength: 322 nm for 1, 301 nm for 2, 324 nm for 3, 324 nm for 4, 373 nm for 5, 322 nm for 6, 320 nm for 7, whereas RSV was detected at 306 nm. The total run time was kept until sample elution.

C2C12 cells [2] = test: MTT assay, cell vitality/proliferation; format: cell-based, mouse
Description: The oxidative stress plays one of the key roles in cell’s life path. For these reasons, to evaluate the possible cytotoxic effects of compounds 1–7 and their effect on the cell proliferative capacity and to define a suitable concentration range, all the new synthesized compounds 1–7 were evaluated for their cytotoxic activity at three different concentrations (1, 10 and 100 μM) via standard MTT assay, using C2C12 cell line (Figure 3). Due to well-known antioxidant and neurodegenerative senescence prevention abilities in addition to enhancing the beneficial effects of physical exercise on the skeletal muscles of the elderly, RSV was used as reference compound [54, 55]. […] For this reason, we performed the same assay also at 48 h for the compounds 5, 6 and RSV (Figure 4).
Prompted by the results obtained for compound 6 as a scavenge ROS due the presence of halogenated groups, we used the widely C2C12 mouse cells as a myogenic model, to study its antioxidant effects following both the evaluation of superoxide anion radical concentration and chemical insults, such as from H2O2. C2C12 cells (CRL 1772; American Type Culture Collection, Rockville, MD, USA) were grown in Dulbecco’s modified Eagle’s medium (DMEM; Euroclone, Pero, Italy) containing 20% foetal bovine serum (Euroclone), […] L-glutamine (Euroclone) and 100 IU mL^−1 penicillin and 100 μg mL^−1 streptomycin (Euroclone). The cells were maintained at 37 °C in a 5% CO2 humidified atmosphere.
Cellular proliferation was tested using a colorimetric assay of 3-[4,5-dimethylthiazol-2-yl]-2,5-diphenyltetrazolium bromide (MTT). We seeded 2000 cells/well in a final volume of 200 μL growth medium in 96-well plates. After 24 h the cells were stimulated with or w/o the newly synthesized compounds for 24 h, or, where indicated, for 48 h. We tested seven new synthesized compounds together with RSV reference at different concentration (1, 10, 100 μM). All compounds were dissolved in DMSO and the experimental dilutions used were made using cellular growth medium. For this reason, the cells were also incubated for 24 h with the DMSO at the same concentration used for the compounds. Incubation was terminated by adding 20 μL of MTT solution (5 mg mL^−1 in phosphate-buffered saline (PBS)) to each well, followed by incubation at 37 °C for 3 h in the dark. After, the plates were centrifuged at 2000 rpm for 15 min. The supernatant was removed, 200 μL dimethylsulfoxide (DMSO) was added to each well, and the plates were incubated for 30 min at 37 °C in the dark. Finally, the plates were read at 540 nm on a scanning multi-well spectrophotometer (Cary50MPR, Varian, Santa Clara, CA, USA).

C2C12 cells [3] = test: NBT assay, superoxide anion detection; format: cell-based, mouse; details: C2C12, 24 h incubation, 1 and 10 μM
Description: At first, the antioxidant effect of compound 6 was assessed by NBT assay (Figure 5). The NBT assay is based on the reduction of NBT into formazan by superoxide anion O2^-. […] The concentration of superoxide anion radical in the cells was determined by spectrophotometric method and is based on the reduction of Nitro blue tetrazolium chloride to Nitro blue-formazan in the presence of O2^-.
Since that during aging, among the ROS there are radicals as superoxide anion that can levels increase, [32] we used NBT assay in order to evaluate the antioxidant capacity of compound 6. C2C12 cells (10^6 cells) were stimulated with or w/o the compound 6 at 1 and 10 μM together with the RSV for 24 h, harvested, centrifuged for 5 min at 1200 rpm and resuspended in 1 mL 0.9% NaCl in which NBT (Nitro blue tetrazolium chloride) is dissolved 1 mg/mL. The cells were incubated for 3 h at 37 °C, centrifuged (for 10 min at 1200 rpm), resuspended in 1 mL DMSO and left 20’ in 37 °C. For the assay, the cells were plated in a 96 well plate (2 × 10^5 cell/well) and read by spectrophotometer at 550 nm on a scanning multi-well spectrophotometer (Cary50MPR, Varian, Santa Clara, CA, USA).

C2C12 cells [4] = test: H2DCFDA assay, intracellular ROS after H2O2 insult; format: cell-based, mouse; details: for ROS levels (H2DCFDA fluorescence): C2C12, 24 h pretreatment, 300 µM H2O2, compared to CTRL
Description: Indeed, the antioxidant activity of compound 6 was also evaluated using an H2DCFDA assay (Figure 6). This assay is one of the most widely used techniques for directly measuring the redox state of a cell. In order to accurately measure ROS and the cellular capability to counteract the H2O2 insult, we used cell-permeable fluorescent and chemiluminescent probes. The fluorescence intensity is proportional to the ROS levels within the cell cytosol and it is in inverse relation to the antioxidant capacity of the cells themselves. The ability to restore the basal level of fluorescence are reported in Figure 6, after 0.5 and 10 min following oxidant stimulus.
Intracellular ROS were quantified by the 2′,7′-dichlorodihydrofluorescein diacetate (H2DCF-DA Cat. No. D6883; Sigma). C2C12 cells were plated (2000 cells/well) into special optics 96-well plates (Corning-Costar, New York, NY, USA) and the cells were treated with RSV at 1 µM and Compound 6 at 1 and 10 µM for 24 h. After the incubation, cells were washed with an imaging buffer and treated with 300 µM H2O2 for an immediate fluorescence measurement. Plates were read every 50 s from 0 to 10 min for kinetic data analysis using a microplate reader (Synergy H1, BioTek), with excitation and emission wavelengths at 490 nm and 520 nm, respectively, and analyzed by Gen 5 version 2.08 (BioTek).

[5] = cited from earlier work
[6] = Log P estimated by RP-HPLC, extrapolated to 0% MeOH, SD at 95% confidence interval

Log k ([1]; 60% MeOH)	Retention factor (k) ([1]; 60% MeOH)	Log k ([1]; 65% MeOH)	Retention factor (k) ([1]; 65% MeOH)	Log k ([1]; 70% MeOH)	Retention factor (k) ([1]; 70% MeOH)	Log k ([1]; 75% MeOH)	Retention factor (k) ([1]; 75% MeOH)	Log k ([1]; 80% MeOH)	Retention factor (k) ([1]; 80% MeOH)	chromatographic logP [1, 6]	melting point [°C]	Structure (SMILES)	cell vitality (MTT reduction) (C2C12 cells [2]; C2C12, 48 h, 1 and 10 μM)	further results
0.9828	9.6110	0.6845	4.8361	0.4010	2.5176	0.1330	1.3584	−0.1255	0.7490	4.29 ± 0.07	184 to 185	Oc1ccc(/C=C/c2ccc(Cl)cc2)cc1 [Compound 1, 4-[(E)-2-(4-Chlorophenyl)vinyl]phenol]	–	–
1.0560	11.3757	0.7826	6.0620	0.5049	3.1984	0.2243	1.6761	0.0216	1.0510	4.2 ± 0.12	126 to 127	Oc1ccc(/C=C/c2ccccc2)cc1Cl [Compound 2, 2-Chloro-4-[(E)-2-phenylvinyl]phenol]	–	–
1.4819	30.3325	–	–	0.8936	7.8267	0.6070	4.0455	0.3308	2.1420	5.11 ± 0.07	119 to 120	Oc1ccc(/C=C/c2ccc(Cl)cc2Cl)cc1 [Compound 3, 4-[(E)-2-(2,4-Dichlorophenyl)vinyl]phenol]	–	Log k ([1]; 50% MeOH): 2.1310; Retention factor (k) ([1]; 50% MeOH): 135.2173
1.7713	59.0580	1.4456	27.8973	1.1149	13.0290	0.7826	6.0620	0.5423	3.4855	> 5	135 to 136	Oc1ccc(/C=C/c2ccc(Cl)cc2Cl)cc1Cl [Compound 4, 2-Chloro-4-[(E)-2-(2,4-dichlorophenyl)vinyl] phenol]	–	Log P * ± SD [1, 6]: 5.50 ± 0.14
0.9974	9.9412	0.7161	5.2008	0.4442	2.7812	0.1536	1.4243	−0.0669	0.8573	4.22 ± 0.09	–	O=[N+]([O-])c1ccc(/C=C/c2ccc(O)c(Cl)c2)cc1 [Compound 5]	non-significant dose-dependent decrease of vitality	–
1.1515	14.1757	0.8368	6.8682	0.5372	3.4447	0.2568	1.8063	−0.0429	0.9059	4.7 ± 0.05	161 to 163	Oc1ccc(/C=C/c2ccc(C(F)(F)F)cc2)cc1 [Compound 7, 4-{(E)-2-[4-(Trifluoromethyl)phenyl]vinyl}phenol]	–	–
–	–	–	–	–	–	–	–	–	–	2.47 ± 0.11	–	Oc1ccc(/C=C/c2cc(O)cc(O)c2)cc1 [RSV, 3,5,4′-trihydroxy-trans-stilbene, reference compound]	did not change the effects respect to the control	ROS levels (H2DCFDA fluorescence) (C2C12 cells [4]): reduce the ROS levels; Log k ([1]; 20% MeOH): 1.6477; Retention factor (k) ([1]; 20% MeOH): 44.4282; Log k ([1]; 25% MeOH): 1.3573; Retention factor (k) ([1]; 25% MeOH): 22.7655; Log k ([1]; 30% MeOH): 1.0693; Retention factor (k) ([1]; 30% MeOH): 11.7294; Log k ([1]; 40% MeOH): 0.5493; Retention factor (k) ([1]; 40% MeOH): 3.5427; Log k ([1]; 50% MeOH): 0.0010; Retention factor (k) ([1]; 50% MeOH): 1.0024; bioavailability [5]: less than 1%; oral bioavailability ([5]; in vivo): almost zero

Structure (SMILES)	Log k ([1]; 60% MeOH)	Retention factor (k) ([1]; 60% MeOH)	Log k ([1]; 65% MeOH)	Retention factor (k) ([1]; 65% MeOH)	Log k ([1]; 70% MeOH)	Retention factor (k) ([1]; 70% MeOH)	Log k ([1]; 75% MeOH)	Retention factor (k) ([1]; 75% MeOH)	Log k ([1]; 80% MeOH)	Retention factor (k) ([1]; 80% MeOH)	chromatographic logP [1, 6]	melting point [°C]	cell vitality (MTT reduction) (C2C12 cells [2]; C2C12, 48 h, 1 and 10 μM)	further results
Oc1ccc(/C=C/c2ccc(C(F)(F)F)cc2)cc1Cl [Compound 6, 2-Chloro-4-{(E)-2-[4-(trifluoromethyl)phenyl]vinyl}phenol]	1.4227	26.4651	1.0820	12.0776	0.7645	5.8149	0.4605	2.8871	0.1498	1.4118	5.21 ± 0.06	117 to 118.4	enhanced vitality	cell vitality (MTT reduction) (C2C12 cells [2]; C2C12, 24 h, 100 μM): drastically reduced the vitality; cell vitality (MTT reduction) (C2C12 cells [2]; C2C12, 24 h, 1 and 10 μM): significant increase of the cell vitality; cell vitality (MTT reduction) (C2C12 cells [2]; C2C12, 48 h, 1 μM): moderate effect; cell vitality (MTT reduction) (C2C12 cells [2]; C2C12, 48 h, 10 μM): higher effect; O2- levels (NBT assay) (C2C12 cells [3]): significant decrease of O2^- levels; antioxidant capacity with respect to RSV (C2C12 cells [4]; C2C12, 10 μM, 300 µM H2O2): significantly higher antioxidant capacity; oxidant insult by H2O2 (H2DCFDA fluorescence) (C2C12 cells [4]; C2C12, 10 μM, 24 h pretreatment, 300 µM H2O2, stable throughout time-course): strongly counteracted; ROS levels (H2DCFDA fluorescence) (C2C12 cells [4]): reduce the ROS levels

From PMC7731283, “Synthesis and Biological Evaluation of Halogenated E-Stilbenols as Promising Antiaging Agents” (Molecules, 2020)
